Measurements: the supplement of paper PMC8671470

Legend:
Conditions in all cases: 72 h
BV-173 = test system: BV-173
Outline: (§1)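 The IC50 was derived from log-logistic dose–response fitting. Each of fifteen myeloid leukaemia cell lines, seeded in RPMI 1640 within its linear growth range, was exposed in 384-well plates to five tenfold doses (1 to 10,000 nM) in duplicate for 72 h at 37 °C and 5% CO2. Luminescent ATP viability readings were normalised to vehicle and to a positive control at 10 µM before four-parameter curve fitting.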

HEL = test system: HEL
Outline: as §1

HL-60 = test system: HL-60
Outline: as §1

K-562 = test system: K-562
Outline: as §1

KCL-22 = test system: KCL-22
Outline: as §1

KG-1 = test system: KG-1
Outline: as §1

KU-812 = test system: KU-812
Outline: as §1

LAMA-84 = test system: LAMA-84
Outline: as §1

ML-2 = test system: ML-2
Outline: as §1

MOLM-13 = test system: MOLM-13
Outline: as §1

MV4-11 = test system: MV4-11
Outline: as §1

Mono-Mac-6 = test system: Mono-Mac-6
Outline: as §1

NOMO-1 = test system: NOMO-1
Outline: as §1

SHI-1 = test system: SHI-1
Outline: as §1

THP-1 = test system: THP-1
Outline: as §1

Row | SMILES | IC50 (cell viability) (BV-173) [µM] | IC50 (cell viability) (HEL) [µM] | IC50 (cell viability) (HL-60) [µM] | IC50 (cell viability) (K-562) [µM] | IC50 (cell viability) (KCL-22) [µM] | IC50 (cell viability) (KG-1) [µM] | IC50 (cell viability) (KU-812) [µM] | IC50 (cell viability) (LAMA-84) [µM] | IC50 (cell viability) (ML-2) [µM] | IC50 (cell viability) (MOLM-13) [µM] | IC50 (cell viability) (MV4-11) [µM] | IC50 (cell viability) (Mono-Mac-6) [µM] | IC50 (cell viability) (NOMO-1) [µM] | IC50 (cell viability) (SHI-1) [µM] | IC50 (cell viability) (THP-1) [µM]
1 | Clc1ccc2c(c1Cl)CNCC2 | > 10 | > 10 | > 10 | > 10 | > 10 | > 10 | > 10 | > 10 | > 10 | > 10 | > 10 | > 10 | > 10 | > 10 | > 10
2 | O=C(O)C(S)=Cc1c[nH]c2ccc(F)cc12 | > 10 | > 10 | > 10 | > 10 | > 10 | > 10 | > 10 | > 10 | > 10 | > 10 | > 10 | > 10 | > 10 | > 10 | > 10
3 | CC(C)Cc1sc(N)nc1-c1ccc(P(=O)(O)O)o1 | > 10 | > 10 | > 10 | > 10 | > 10 | > 10 | > 10 | > 10 | > 10 | > 10 | > 10 | > 10 | > 10 | > 10 | > 10
4 | Cl.OC[C@H]1NC[C@@H](O)[C@@H](O)[C@@H]1O [1-Deoxymannojirimycin hydrochloride] | > 10 | > 10 | > 10 | > 10 | > 10 | > 10 | > 10 | > 10 | > 10 | > 10 | > 10 | > 10 | > 10 | > 10 | > 10
5 | CN(C)c1nc(O)c2[nH]cnc2n1 [2-Dimethylamino-6-hydroxypurine] | > 10 | > 10 | > 10 | > 10 | > 10 | > 10 | > 10 | > 10 | > 10 | > 10 | > 10 | > 10 | > 10 | > 10 | > 10
6 | O=C(O)c1cc2sccc2[nH]1 [4H-thieno[3,2-b]pyrrole-5-carboxylic acid] | > 10 | > 10 | > 10 | > 10 | > 10 | > 10 | > 10 | > 10 | > 10 | > 10 | > 10 | > 10 | > 10 | > 10 | > 10
7 | [N-]=[N+]=CC(=O)CC[C@H](N)C(=O)O [6-Diazo-5-oxo-L-norleucine] | > 10 | > 10 | > 10 | > 10 | > 10 | > 10 | > 10 | > 10 | > 10 | > 10 | > 10 | > 10 | > 10 | > 10 | > 10
8 | Sc1ncnc2nc[nH]c12 [6-mercaptopurine] | 0.527 | 1.91 | 0.964 | 0.732 | 1.01 | > 10 | 2.51 | 1.33 | 1.1 | 0.907 | 0.332 | 1.03 | 0.441 | 1.52 | > 10
9 | O=C(O)CC[C@H](NC(=O)c1ccc([N+](=O)[O-])cc1)C(=O)O [(S)-2-(4-Nitrobenzamido)pentanedioic acid] | > 10 | > 10 | > 10 | > 10 | > 10 | > 10 | > 10 | > 10 | > 10 | > 10 | > 10 | > 10 | > 10 | > 10 | > 10
10 | O=C1Nc2ccccc2/C1=C\NCCc1ccc(O)c(O)c1 [AC1NZZMF] | > 10 | > 10 | > 10 | > 10 | > 10 | > 10 | > 10 | > 10 | > 10 | > 10 | > 10 | > 10 | > 10 | > 10 | > 10
11 | Cc1ccc(S(=O)(=O)NC2c3ccccc3Oc3ccccc32)cc1 [AH-7614] | > 10 | > 10 | > 10 | > 10 | > 10 | > 10 | > 10 | > 10 | > 10 | > 10 | > 10 | > 10 | > 10 | > 10 | > 10
12 | C[C@]12CC[C@H](O)CC1=CC[C@@H]1[C@@H]2CC[C@]2(C)C(c3cccnc3)=CC[C@@H]12 [Abiraterone] | > 10 | > 10 | > 10 | > 10 | > 10 | > 10 | > 10 | > 10 | > 10 | > 10 | > 10 | > 10 | > 10 | > 10 | > 10
13 | O=C(COc1ccc(C(=O)c2ccccc2)cc1)NC1CCN(Cc2ccccc2)CC1 [AdipoRon] | 7.82 | > 10 | > 10 | > 10 | > 10 | 9.73 | 8.38 | > 10 | > 10 | > 10 | > 10 | > 10 | > 10 | > 10 | > 10
14 | CCOC(=O)[C@H]1O[C@@H]1C(=O)N[C@@H](CC(C)C)C(=O)NCCC(C)C [Aloxistatin] | > 10 | > 10 | > 10 | > 10 | > 10 | > 10 | > 10 | > 10 | > 10 | > 10 | > 10 | > 10 | 5.52 | > 10 | > 10
15 | N[C@](CCCCB(O)O)(CCN1CCCCC1)C(=O)O [Arginase inhibitor 1] | > 10 | > 10 | > 10 | > 10 | > 10 | > 10 | > 10 | > 10 | > 10 | > 10 | > 10 | > 10 | > 10 | > 10 | > 10
16 | Cc1noc2c1-c1ccccc1C(c1ccc(Cl)cc1)=N[C@H]2CC(N)=O [CPI-0610] | 0.538 | 1.52 | 0.2 | 0.377 | 0.624 | 0.135 | 0.422 | 1.59 | 1.26 | 0.274 | 0.146 | 0.142 | 0.349 | 0.5 | 0.765
